Source: PMC5863483, “Low HLA binding of diabetes-associated CD8+ T-cell epitopes is increased by post translational modifications” (BMC Immunology, 2018)
Like-named read-outs stand apart in the source and are kept apart here. Where no end group is shown, it is not given here.

Assays:
HLA-B*07:02 = HLA-B*07:02 (Homo sapiens, UniProt P01889); experiment: HLA-peptide competition binding assay, B*07:02; details: read-out: IC50 nM, target assay B*07:02
HLA-A*02:01 = HLA-A*02:01 (Homo sapiens, UniProt P04439, D140Y/D185E/D98H/E176V/E277Q/G131W/G231S/I119V/I121R/I166T/I218V/L300P/L318F/N151K/N90K/P208A/P217A/Q86G/Q94H/R138H/R169H/T345S); experiment: HLA-peptide competition binding assay, A*02:01
HLA-A*24:02 = HLA-A*24:02 (Homo sapiens, UniProt P04439, D101N/D140Y/D185E/E176V/E190D/F33S/G103R/G107R/I119L/I121M/I306V/K335N/L105A/L180Q/L300P/N151K/N90K/Q86E/Q94H/R106L/R138H/R89G/T104I/T345S/V100E/W191G/Y123F); experiment: HLA-peptide competition binding assay, A*24:02; details: read-out: IC50 nM, target assay A*24:02
HLA-A*01:01 = HLA-A*01:01 (Homo sapiens, UniProt P04439, A114D/A174V/A182V/D101N/D185E/E176A/E190D/L180R/Q94H/R68K/S129P/T187R/V100A/V91M/W191G); experiment: HLA-peptide competition binding assay, A*01:01; details: read-out: IC50 nM, target assay A*01:01
HLA-B*08:01 = HLA-B*08:01 (Homo sapiens, UniProt P01889, A93T/A95T/D138N/E176V/E187T/K202T/Q94N/R180D/S35A/V36M/Y33D/Y91F); experiment: biochemical
Procedure: The 138 peptides were tested for their capacity to bind their respective HLA class I restricting allele(s) in classical competition assays based on the inhibition of the binding of high affinity radiolabeled ligands to purified major histocompatibility (MHC) molecules, as described in the Methods. In instances where the precise restriction was not available, binding to the most common representative subtype from the same allele family was assayed (e.g., A*02:01 for A02; B*07:02 for B7; A*03:01 for A03, etc.). For epitopes reported to be restricted by multiple alleles, each restriction is shown separately.
Peptide-MHC affinities were measured using classical competition assays based on the inhibition of binding of a high affinity radiolabeled ligand to purified HLA class I molecules, as previously described. Briefly, 0.1–1 nM of radiolabeled peptide is co-incubated at room temperature with purified MHC in the presence of a cocktail of protease inhibitors. Following a two-day incubation, MHC bound radioactivity is determined by capturing MHC/peptide complexes on W6/32 (anti-HLA class I) mAb coated Lumitrac 600 plates (Greiner Bio-one, Frickenhausen, Germany), and bound cpm measured using the TopCount (Packard Instrument Co., Meriden, CT) microscintillation counter. […] Under the conditions utilized, where [label] < [MHC] and IC50 ≥ [MHC], measured IC50 values are reasonable approximations of true Kd. Each competitor peptide is tested at six different concentrations covering a 100,000-fold range, and in three or more independent experiments. As a positive control, the unlabeled version of the radiolabeled probe is also tested in each experiment.

HLA-A*03:01 = HLA-A*03:01 (Homo sapiens, UniProt P04439); experiment: HLA-peptide competition binding assay, A*03:01
HLA-A*11:01 = HLA-A*11:01 (Homo sapiens, UniProt P04439, A114D/D185E/E176A/F33Y/L180Q/S129P/T187R); experiment: HLA-peptide competition binding assay, A*11:01; details: read-out: IC50 nM, target assay A*11:01
[1] = read-out: A*02:01 binding (IC50 nM) WT
[2] = read-out: IC50 nM, target assay A*02:01
[3] = unmodified (WT) insulin peptide, competition binding assay, a dash indicates IC50 >40,000 nM, read-out: A*02:01 binding (IC50 nM) WT
[4] = read-out: IC50 nM, target assay A*03:01

Molecule: CC(C)C[C@H](NC(=O)[C@H](CCC(N)=O)NC(=O)[C@H](CC(N)=O)NC(=O)[C@H](Cc1ccccc1)NC(=O)[C@H](Cc1ccc(O)cc1)NC(=O)[C@H](CCCNC(=N)N)NC(=O)[C@@H]1CCCN1C(=O)[C@@H](N)Cc1c[nH]cn1)C(=O)N[C@@H](CO)C(=O)N[C@H](C(=O)O)[C@@H](C)O
- IC50 (HLA-B*07:02): 1250 nM

Molecule: CC(C)C[C@H](NC(=O)[C@H](Cc1ccc(O)cc1)NC(=O)[C@@H](N)CC(C)C)C(=O)N[C@H](C(=O)N[C@@H](CS)C(=O)NCC(=O)N[C@@H](CCC(=O)O)C(=O)N[C@@H](CCCNC(=N)N)C(=O)NCC(=O)N[C@@H](Cc1ccccc1)C(=O)O)C(C)C [reference compound]
- IC50 (HLA-A*02:01; [1]): 13400 nM
- IC50 (HLA-A*24:02): 5250 nM

Molecule: ALWGPDPAAAF
- IC50 (HLA-A*01:01): > 40000 nM
- IC50 (HLA-A*24:02): 15100 nM

Molecule: ALWMRLLPL [reference compound]
- IC50 (HLA-A*02:01; [2]): 218 nM
- IC50 (HLA-B*08:01): 0.107 µM

Molecule: ALWMRLLPLL
- IC50 (HLA-A*02:01; [2]): 190 nM
- IC50 (HLA-A*24:02): 6180 nM
- IC50 (HLA-B*08:01): 0.033 µM

Molecule: ALYLVCGER
- IC50 (HLA-A*02:01): 1790 nM
- IC50 (HLA-A*03:01): 2790 nM
- IC50 (HLA-A*11:01): 28300 nM

Molecule: APVIKARMM
- IC50 (HLA-B*07:02): 18200 nM

Molecule: ERGFFYTPK [reference compound]
- IC50 (HLA-A*02:01; [3]): > 40000 nM
- IC50 (HLA-A*03:01; [4]): > 40000 nM

Molecule: FYTPKTRRE [reference compound]
- IC50 (HLA-A*02:01; [3]): > 40000 nM
- IC50 (HLA-B*08:01): 13 µM

Molecule: GERGFFYT
- IC50 (HLA-A*01:01): > 40000 nM
- IC50 (HLA-B*08:01): 1.38 µM

Molecule: GSHLVEALY [reference compound]
- IC50 (HLA-A*01:01): 30300 nM
- IC50 (HLA-A*02:01; [1]): 3960 nM

Molecule: IPSDLERRIL
- IC50 (HLA-B*07:02): 3860 nM

Molecule: LVCGERGFFY
- IC50 (HLA-A*01:01): > 40000 nM
- IC50 (HLA-A*02:01; [1]): 23200 nM
- IC50 (HLA-A*03:01; [4]): 27400 nM
- IC50 (HLA-A*11:01): 27200 nM

Molecule: LWMRLLPLL [reference compound]
- IC50 (HLA-A*02:01; [1]): 266 nM
- IC50 (HLA-A*24:02): 545 nM

Molecule: MFPEVKEKG
- IC50 (HLA-A*11:01): > 40000 nM

Molecule: NQHLCGSHL
- IC50 (HLA-A*02:01; [3]): > 40000 nM

Molecule: NQHLCGSHLV
- IC50 (HLA-A*02:01; [1]): 7990 nM

Molecule: PKTRREAED [PKTRREAED]
- IC50 (HLA-A*02:01; [3]): > 40000 nM

Molecule: PKTRREAEDL
- IC50 (HLA-A*02:01; [3]): > 40000 nM

Molecule: PLALEGSLQK
- IC50 (HLA-A*03:01): > 40000 nM

Molecule: PLLALLALWG
- IC50 (HLA-A*03:01; [4]): > 40000 nM

Molecule: QHLCGSHLV
- IC50 (HLA-A*02:01; [3]): > 40000 nM
- IC50 (HLA-A*02:01; unmodified (wild type) insulin-derived peptide, radiolabeled ligand competition, purified MHC, two-day incubation, three or more independent experiments, read-out: A*02:01 binding, WT): > 40000 nM

Molecule: QHLCGSHLVE
- IC50 (HLA-A*02:01; [3]): > 40000 nM

Molecule: QKRGIVEQC
- IC50 (HLA-A*02:01; [3]): > 40000 nM

Molecule: QLARQQVHV [reference compound]
- IC50 (HLA-A*02:01; [2]): > 40000 nM

Molecule: REAEDLQVG
- IC50 (HLA-A*02:01; [3]): > 40000 nM

Molecule: REAEDLQVGQ
- IC50 (HLA-A*02:01; [1]): 23700 nM

Molecule: RFKMFPEVK
- IC50 (HLA-A*11:01): 18300 nM

Molecule: RGYFYTPKT
- IC50 (HLA-A*02:01; post-translationally modified insulin peptide, competition binding assay, a dash indicates IC50 >40,000 nM, read-out: A*02:01 binding (IC50 nM) Modified): > 40000 nM

Molecule: RGYYYTPKT
- IC50 (HLA-A*02:01): 8810 nM

Molecule: RLGPVARTRV [reference compound]
- IC50 (HLA-A*02:01; [2]): 581 nM

Molecule: RLLCALTSL [reference compound]
- IC50 (HLA-A*02:01; [2]): 91 nM

Molecule: RLLPLLALL [reference compound]
- IC50 (HLA-A*02:01; [2]): 145 nM
- IC50 (HLA-A*24:02): 10200 nM

Molecule: RLLPLLALLA
- IC50 (HLA-A*02:01; [1]): 11 nM

Molecule: RLLPLLALLAL [RLLPLLALLAL, reference compound]
- IC50 (HLA-A*02:01; [2]): 109 nM

Molecule: RLLPLWAAL [RLLPLWAAL, reference compound]
- IC50 (HLA-A*02:01; [2]): 52 nM

Molecule: RLLPLWAALPL [reference compound]
- IC50 (HLA-A*02:01; [2]): 5.4 nM

Molecule: RLLYPDYQI [reference compound]
- IC50 (HLA-A*02:01; [2]): 124 nM

Molecule: RLQREWHTL [reference compound]
- IC50 (HLA-A*02:01; [2]): 1230 nM

Molecule: RMMEYGTTMV [reference compound]
- IC50 (HLA-A*02:01; [2]): 709 nM

Molecule: RREAEDLQV
- IC50 (HLA-A*02:01; [3]): > 40000 nM

Molecule: RREAEDLQVG
- IC50 (HLA-A*02:01; [3]): > 40000 nM

Molecule: SASVQRADTSL
- IC50 (HLA-B*07:02): 11 nM

Molecule: SHLVEALYL
- IC50 (HLA-A*02:01; [1]): 257 nM

Molecule: SHLVEALYLV [reference compound]
- IC50 (HLA-A*02:01): 2150 nM

Molecule: SISVLISAL [SISVLISAL, reference compound]
- IC50 (HLA-A*02:01; [2]): 1550 nM

Molecule: SLAAGVKLL [reference compound]
- IC50 (HLA-A*02:01; [2]): 3690 nM

Molecule: SLASLLPHV [reference compound]
- IC50 (HLA-A*02:01; [2]): 9.1 nM

Molecule: SLEEEIRFL [reference compound]
- IC50 (HLA-A*02:01; [2]): 472 nM

Molecule: SLFEGVDFYT [reference compound]
- IC50 (HLA-A*02:01; [2]): 51 nM

Molecule: SLQKRGIVE [SLQKRGIVE]
- IC50 (HLA-A*02:01; [1]): 5950 nM
